For assay [1], the target named is BTK WT (Homo sapiens (Human), UniProt Q06187). Put plainly: Lantha Screening Kinase Reaction Assay. The format is biochemical. Conditions: for IC50: TR-FRET LanthaScreen, kinase Invitrogen PV3363, 60 min at 25° C.; for inhibitory activity against enzyme (BTK WT), in words: comment on table 1, G-12 and G-17 compared with G-2. How it is done: The compound was predissolved in 100% DMSO.10 mM drug stock solution was obtained by dissolution at room temperature and then gradiently diluted with 8 vol % DMSO solution to a final concentration of 10-0.005 μM. 2.5 μl of a solution of substance to be tested and 2.5 μl of kinase (Invitrogen PV3363) diluted with the reaction buffer were added into each well of 384-well plate (Corning 3676), and then the mixture of Fluososcei-PolyGT (Invitrogen PV3610) substrate and ATP (Invitrogen PV3227) diluted with 5 μl of the reaction buffer were added to initiate the reaction. Among the wells, the kinase in the blank well was replaced with a reaction buffer and the kinase well (Enzyme) was not added with any drug. […] The plates were read on a VictorX5 fluorescent plate reader (PerkinElmer) and the light absorption at an excitation wavelength of 340 nm and emission wavelengths of 500 nm and 520 nm was measured.
2. The half-inhibitory concentration IC50 was calculated by fitting with XLFIT 5.0 software (IDBS, UK).
Background: TR-FRET usually uses a lanthanide donor and a delayed reading to cut background.

For assay [2], the target named is wild-type EGFR kinase (Homo sapiens (Human), UniProt P00533). The assay is described as follows: Wild type EGFR kinase inhibition test (z-lyte). Format: biochemical. The following applies: wild-type EGFR kinase Invitrogen PV3872, Tyr04 substrate, read-out: EGFR WT IC50. An excerpt:
All the following reagents used in z-lyte test are commercially available from Invitrogen.
The calculation method for the inhibition ratio (referring to the instruction of PV3363, Invitrogen) was as follows: ER=Coumarin Emission (450 nm)/Fluorescein Emission (520 nm) 1. Phosphorylation ratio=(1−((ER×C3520 nm−C3450 nm)/((C1450 nm−C3450 nm)+ER×(C3520 nm−C1520 nm))))×100% 2. Inhibition ratio (IR)=(1-phosphorylation ratio of the test compound)/(phosphorylation ratio of C2))×100% 3.
The half-inhibitory concentration IC50 was calculated by fitting with XLFIT 5.0 software (IDBS, UK).

In assay [3] the target is βBTK Y223 (Ramos cells) (Homo sapiens (Human), UniProt Q06187). Put plainly: HTRF method for detecting intracellular βBTK Y223 phosphorylation. The format is cell-based. Conditions: 1 hour compound incubation, sodium pervanadate stimulation. How it is done: The compound was predissolved in 100% DMSO. 10 mM drug stock solution was obtained by dissolution at room temperature and then gradiently diluted with 5 vol % DMSO solution to a final concentration of 3-0.0014 μM. Ramos cells were seeded into a 96-well plate at a density of 4×10^5/well with 45 μl of 1640 medium containing 10% (V/V) FBS per well, and 5 μl of diluted solution of substance to be tested was added to each well. Incubation was performed for 1 hour at 37° C., 5% (V/V) CO2. 10 μl of sodium pervanadate dilution (diluted with 1640 without serum) was added, and 10 μl of serum-free medium was added to the negative control wells. Incubation was performed at 25° C. for 30 minutes on a shaker. 20 μl of lysate (4× lysate: blocked mother liquor is equal to 25:1) was added to each well and incubated for 30 minutes at 25° C. on a shaker. The 96-well plate was shaken on an oscillator at 800 rpm for 1 minute. 16 μl of cell lysate was added to a 384-well plate (Greiner 784075), and 4 μl of pre-mixed antibody solution (Phospho-BTK d2 antibody and Phospho-BTK Cryptate antibody diluted 20-fold with the test solution) was added. Incubation was performed at 25° C. overnight on a shaker. The plate was read on a VictorX5 fluorescent plate reader (PerkinElmer) and the light absorption at an excitation wavelength of 317 nm and emission wavelengths of 500 nm and 520 nm was measured (referring to the instruction of 63ADK017PEH, Cisbio). The half-inhibitory concentration IC50 was calculated by fitting with XLFIT 5.0 software (IDBS, UK).

Where only a bound is given, the exact number is not on record here.

βBTK Y223 (Ramos cells), sequence (Q06187 whole entry): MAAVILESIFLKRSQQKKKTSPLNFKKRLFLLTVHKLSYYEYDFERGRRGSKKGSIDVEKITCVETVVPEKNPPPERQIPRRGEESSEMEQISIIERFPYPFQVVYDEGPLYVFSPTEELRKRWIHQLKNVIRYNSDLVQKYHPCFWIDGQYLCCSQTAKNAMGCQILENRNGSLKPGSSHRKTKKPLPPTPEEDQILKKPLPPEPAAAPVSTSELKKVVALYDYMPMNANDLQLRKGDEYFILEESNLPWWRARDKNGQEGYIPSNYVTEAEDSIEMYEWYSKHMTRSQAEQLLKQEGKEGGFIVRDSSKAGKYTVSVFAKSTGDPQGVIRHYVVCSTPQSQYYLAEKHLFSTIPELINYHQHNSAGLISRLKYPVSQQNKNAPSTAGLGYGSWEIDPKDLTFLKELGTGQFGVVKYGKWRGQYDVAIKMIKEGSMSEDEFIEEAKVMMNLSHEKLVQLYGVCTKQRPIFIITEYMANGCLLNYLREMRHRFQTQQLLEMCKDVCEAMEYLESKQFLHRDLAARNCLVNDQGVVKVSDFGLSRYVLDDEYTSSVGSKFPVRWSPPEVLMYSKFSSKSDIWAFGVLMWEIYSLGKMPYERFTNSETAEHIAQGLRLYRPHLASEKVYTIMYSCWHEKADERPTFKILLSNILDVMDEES
BTK WT, sequence (Q06187 whole entry): as above
wild-type EGFR kinase, sequence (P00533 25-1210): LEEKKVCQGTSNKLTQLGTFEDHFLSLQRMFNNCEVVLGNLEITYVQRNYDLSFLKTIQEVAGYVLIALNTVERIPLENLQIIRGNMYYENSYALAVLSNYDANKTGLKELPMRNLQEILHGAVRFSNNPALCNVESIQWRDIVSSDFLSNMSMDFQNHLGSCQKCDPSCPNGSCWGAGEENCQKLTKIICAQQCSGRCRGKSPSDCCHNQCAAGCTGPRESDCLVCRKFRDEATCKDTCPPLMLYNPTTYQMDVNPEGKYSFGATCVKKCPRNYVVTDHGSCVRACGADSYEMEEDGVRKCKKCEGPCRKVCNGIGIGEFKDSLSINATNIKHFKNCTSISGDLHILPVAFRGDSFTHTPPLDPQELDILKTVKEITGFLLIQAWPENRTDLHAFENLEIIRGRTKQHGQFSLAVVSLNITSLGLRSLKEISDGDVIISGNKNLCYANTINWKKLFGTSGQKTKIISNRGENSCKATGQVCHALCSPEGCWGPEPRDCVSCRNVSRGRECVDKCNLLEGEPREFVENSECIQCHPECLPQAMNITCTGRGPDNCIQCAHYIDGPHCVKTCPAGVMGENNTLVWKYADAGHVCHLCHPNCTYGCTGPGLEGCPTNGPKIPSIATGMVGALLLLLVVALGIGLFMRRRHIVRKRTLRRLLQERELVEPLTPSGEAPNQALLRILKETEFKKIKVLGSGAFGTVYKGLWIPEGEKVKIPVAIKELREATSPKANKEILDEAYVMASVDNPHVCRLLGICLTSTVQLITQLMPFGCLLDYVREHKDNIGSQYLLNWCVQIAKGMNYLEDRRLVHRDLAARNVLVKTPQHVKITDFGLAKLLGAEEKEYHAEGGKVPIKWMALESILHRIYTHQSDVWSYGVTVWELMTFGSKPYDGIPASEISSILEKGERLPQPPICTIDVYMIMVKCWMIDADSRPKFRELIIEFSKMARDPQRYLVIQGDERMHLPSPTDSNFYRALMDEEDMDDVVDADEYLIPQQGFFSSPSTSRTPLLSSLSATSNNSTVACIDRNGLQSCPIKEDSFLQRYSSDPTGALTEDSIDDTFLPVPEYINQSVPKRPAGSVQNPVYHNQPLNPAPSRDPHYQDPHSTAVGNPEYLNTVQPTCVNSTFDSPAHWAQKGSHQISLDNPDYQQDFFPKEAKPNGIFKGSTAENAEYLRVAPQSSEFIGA

For the compound `C=CC(=O)Nc1cccc(Nc2nc(Nc3ccc(OCCOC)cc3)c3c(c2F)C(C)NC3=O)c1` (stereo not drawn) [Compound G-1, N-(3-((7-fluoro-4-((4-(2-methoxyethoxy)phenyl)amino)-1-methyl-3-oxo-2,3-dihydro-1H-pyrrolo[3,4-C]pyridin-6-yl)amino)phenyl)acrylamide], the IC50 in assay [1] amounted to 141 nM; in assay [2] it was 9270 nM.

`C=CC(=O)Nc1cccc(Nc2nc3c(c(Nc4ccc(OCCOC)cc4)n2)C(=O)NC3)c1` [Compound G-2, N-(3-(4-(4-(2-methoxyethoxy)phenylamino)-5-oxo-6.7-dihydro-5H-pyrrolo[3,4-d]pyrimidin-2-ylamino)phenyl)acrylamide]: the IC50 in assay [3] turned out to be 43 nM; in assay [1] it was 25 nM; in assay [2] it was 4690 nM.

`C=CC(=O)Nc1cccc(Nc2nc(Nc3ccc(OCCOC)cc3)c3c(c2F)CNC3=O)c1` [Compound G-3, N-(3-(7-fluoro-4-(4-(2-methoxyethoxy)phenylamino)-3-oxo-2,3-dihydro-1H-pyrrolo[3,4-c]pyridin-6-ylamino)phenyl)acrylamide]: the IC50 in assay [3] was 106 nM; in assay [1] it was 58 nM; in assay [2] it was over 10000 nM.

Turning to `C=CC(=O)Nc1cccc(Nc2nc(Nc3ccc(N4CCN(CC(C)O)CC4)cc3)c3c(c2F)CNC3=O)c1` (stereo not drawn) [Compound G-4, N-(3-(7-fluoro-4-(4-(4-(2-hydroxypropyl)piperazin-1-yl)phenylamino)-3-oxo-2,3-dihydro-1H-pyrrolo[3,4c]pyridin-6-ylamino)phenyl)acrylamide], the IC50 in assay [3] was 6 nM; in assay [1] it was 10 nM; in assay [2], 3000 nM.

`C=CC(=O)Nc1cccc(Nc2nc(Nc3ccc(OCCOC)cc3)c3c(c2F)C(C)(C)NC3=O)c1` [Compound G-5, N-(3-(7-fluoro-4-(4-(2-methoxyethoxy)phenylamino)-1,1-dimethyl-3-oxo-2,3-dihydro-1H-pyrrolo[3,4-c]pyridin-6-ylamino)phenyl)acrylamide] showed an IC50 in assay [1] of 156 nM.

As for `C=CC(=O)Nc1cccc(Nc2nc3c(c(Nc4ccccc4)n2)C(=O)NC3)c1` [Compound G-6, N-(3-(5-oxo-4-(phenylamino)-6,7-dihydro-5H-pyrrolo[3,4-d]pyrimidin-2-ylamino)phenyl)acrylamide], the IC50 stood at 20 nM in assay [3], 14 nM in assay [1] and 3000 nM in assay [2].

Take `C=CC(=O)Nc1cccc(Nc2nc3c(c(Nc4cnn(C5CCOCC5)c4)n2)C(=O)NC3)c1` [Compound G-7, N-(3-(5-oxo-4-(1-(tetrahydro-2H-pyran-4-yl)-1H-pyrazol-4-ylamino)-6,7-dihydro-5H-pyrrolo[3,4d]pyrimidin-2-ylamino)phenyl)acrylamide]: the IC50 in assay [3] is 111 nM; in assay [1], 19 nM; in assay [2], 6990 nM.

In the case of `C=CC(=O)Nc1cccc(Nc2nc3c(c(Nc4cnn(C)c4)n2)C(=O)NC3)c1` [Compound G-8, N-(3-(4-(1-methyl-1H-pyrazol-4-ylamino)-5-oxo-6,7-dihydro-5H-pyrrolo[3,4-d]pyrimidin-2-ylamino)phenyl)acrylamide], the values for the IC50 in assay [3], in assay [1] and in assay [2] were 36 nM, 9 nM and 6420 nM, respectively.

As to `C=CC(=O)Nc1cccc(Nc2nc3c(c(Nc4cnn(CC(C)(C)O)c4)n2)C(=O)NC3)c1` [Compound G-9, N-(3-(4-(1-(2-hydroxyl-2-methylpropyl)-1H-pyrazol-4-ylamino)-5-oxo-6,7-dihydro-5H-pyrrolo[3,4-d]pyrimidin-2-ylamino)phenyl)acrylamide], the results for the IC50 in assay [3], in assay [1] and in assay [2] were 82 nM, 55 nM and 5030 nM, respectively.

Turning to `C=CC(=O)Nc1cccc(Nc2cc3c(c(Nc4ccc(OCCOC)cc4)n2)C(=O)NC3)c1` [Compound G-10, N-(3-(4-(4-(2-methoxyethoxy)phenylamino)-3-oxo-2,3-dihydro-1H-pyrrolo[3,4-c]pyridin-6-ylamino)phenyl)acrylamide], the figures for the IC50 in assay [3], in assay [1] and in assay [2] were 164 nM, 68 nM and over 10000 nM, respectively.

`C=CC(=O)Nc1cccc(Nc2nc3c(c(-c4cnn(C)c4)n2)C(=O)NC3)c1` [Compound G-11, N-(3-(4-(1-methyl-1H-pyrazol-4-yl)-5-oxo-6,7-dihydro-5H-pyrrolo[3,4-d]pyrimidin-2-ylamino)phenyl)acrylamide]: the figures for the IC50 in assay [3], in assay [1] and in assay [2] were 4 nM, 48 nM and over 10000 nM, respectively.

Take `C=CC(=O)Nc1cccc(Nc2nc3c(c(Oc4ccc(OCCOC)cc4)n2)C(=O)NC3)c1` [Compound G-12, N-(3-((4-(4-(2-methoxyethoxy)phenoxyl)-5-oxo-6,7-dihydro-5H-pyrrolo[3,4-d]pyrimidin-2-yl)amino)phenyl)acrylamide]: in assay [1], the IC50 stood at 1350 nM and the “inhibitory activity against enzyme (BTK WT), in words” value is recorded as “significantly reduced”. For the same compound, the IC50 in assay [2] turned out to be 1530 nM.

With `C=CC(=O)Nc1cccc(Nc2nc3c(c(Nc4cnn(C5CC5)c4)n2)C(=O)NC3)c1` [Compound G-13], the IC50 in assay [3] stood at 81 nM; in assay [1], 63 nM; in assay [2] it was 3080 nM.

Take `C=CC(=O)Nc1cccc(Nc2nc3c(c(Nc4cnn(CCOC)c4)n2)C(=O)NC3)c1` [Compound G-14]: the IC50 is 103 nM in assay [3], 59 nM in assay [1] and 2690 nM in assay [2].

Turning to `C=CC(=O)Nc1cccc(Nc2nc3c(c(Nc4ccc(N5CCOCC5)cc4)n2)C(=O)NC3)c1` [Compound G-15], the IC50 was found to be 36 nM in assay [3], 52 nM in assay [1] and 4260 nM in assay [2].

`C=CC(=O)N(CC)c1cccc(Nc2nc3c(c(Nc4ccc(N5CCN(C6COC6)C[C@@H]5C)cc4)n2)C(=O)NC3)c1` [Compound G-16]: the IC50 in assay [3] was 62 nM; in assay [1] it was 44 nM; in assay [2], 5680 nM.

In the case of `C=CC(=O)Nc1cccc(Nc2nc3c(c(N(C)c4ccc(OCCOC)cc4)n2)C(=O)NC3)c1` [Compound G-17], in assay [1], the IC50 was over 10000 nM and the “inhibitory activity against enzyme (BTK WT), in words” value is given as “significantly lowered”. Further, the IC50 in assay [2] was over 10000 nM.

The term IC50 denotes the midpoint of a concentration-inhibition curve.

The record behind these values is US11174254B2, “Aniline-substituted 1,2-dihydropyrrol[3,4-C]pyridin/pyrimidin-3-one derivative and use thereof” (SHANGHAI HAIYAN PHARMACEUTICAL TECHNOLOGY CO., LTD., priority 2017, dated 2021).
